From PMC12030650, “Synthesis, Antitumor Activities, and Apoptosis-Inducing Activities of Schiff’s Bases Incorporating Imidazolidine-2,4-dione Scaffold: Molecular Docking Studies and Enzymatic Inhibition Activities” (Pharmaceuticals, 2025)
Several values for one entry are separate records, joined by “and”; a condition that tells them apart may be missing. Identical values can stand only once. Like-named read-outs stand apart in the source and are kept apart here. One block for each compound: values may come before it.

What was measured:
hepatoblastoma (HePG-2) = test: MTT cytotoxicity assay, HePG-2; details: for IC50: Homo sapiens, HepG2, read-out: IC50 HePG-2; for SI (selectivity index) HePG-2: WI-38 vs HePG-2
[1] = tested on: human colorectal carcinoma (HCT-116); test: MTT cytotoxicity assay, HCT-116; details: for IC50: Homo sapiens, HCT-116, read-out: IC50 HCT-116; for SI (selectivity index) HCT-116: WI-38 vs HCT-116
[2] = tested on: breast adenocarcinoma (MCF-7); test: MTT cytotoxicity assay, MCF-7; details: for IC50: Homo sapiens, MCF7, read-out: IC50 MCF-7; for SI (selectivity index) MCF-7: WI-38 vs MCF-7
EGFR = biological target: T1, EGFR (Homo sapiens, UniProt P00533); test: In vitro luminescent EGFR tyrosine kinase assay (Kinase-Glo Max); format: biochemical; details: read-out: Kinase Inhibition IC50 EGFR
T1 construct: purchased BPS Bioscience 40321
T1 sequence (P00533 25-1210): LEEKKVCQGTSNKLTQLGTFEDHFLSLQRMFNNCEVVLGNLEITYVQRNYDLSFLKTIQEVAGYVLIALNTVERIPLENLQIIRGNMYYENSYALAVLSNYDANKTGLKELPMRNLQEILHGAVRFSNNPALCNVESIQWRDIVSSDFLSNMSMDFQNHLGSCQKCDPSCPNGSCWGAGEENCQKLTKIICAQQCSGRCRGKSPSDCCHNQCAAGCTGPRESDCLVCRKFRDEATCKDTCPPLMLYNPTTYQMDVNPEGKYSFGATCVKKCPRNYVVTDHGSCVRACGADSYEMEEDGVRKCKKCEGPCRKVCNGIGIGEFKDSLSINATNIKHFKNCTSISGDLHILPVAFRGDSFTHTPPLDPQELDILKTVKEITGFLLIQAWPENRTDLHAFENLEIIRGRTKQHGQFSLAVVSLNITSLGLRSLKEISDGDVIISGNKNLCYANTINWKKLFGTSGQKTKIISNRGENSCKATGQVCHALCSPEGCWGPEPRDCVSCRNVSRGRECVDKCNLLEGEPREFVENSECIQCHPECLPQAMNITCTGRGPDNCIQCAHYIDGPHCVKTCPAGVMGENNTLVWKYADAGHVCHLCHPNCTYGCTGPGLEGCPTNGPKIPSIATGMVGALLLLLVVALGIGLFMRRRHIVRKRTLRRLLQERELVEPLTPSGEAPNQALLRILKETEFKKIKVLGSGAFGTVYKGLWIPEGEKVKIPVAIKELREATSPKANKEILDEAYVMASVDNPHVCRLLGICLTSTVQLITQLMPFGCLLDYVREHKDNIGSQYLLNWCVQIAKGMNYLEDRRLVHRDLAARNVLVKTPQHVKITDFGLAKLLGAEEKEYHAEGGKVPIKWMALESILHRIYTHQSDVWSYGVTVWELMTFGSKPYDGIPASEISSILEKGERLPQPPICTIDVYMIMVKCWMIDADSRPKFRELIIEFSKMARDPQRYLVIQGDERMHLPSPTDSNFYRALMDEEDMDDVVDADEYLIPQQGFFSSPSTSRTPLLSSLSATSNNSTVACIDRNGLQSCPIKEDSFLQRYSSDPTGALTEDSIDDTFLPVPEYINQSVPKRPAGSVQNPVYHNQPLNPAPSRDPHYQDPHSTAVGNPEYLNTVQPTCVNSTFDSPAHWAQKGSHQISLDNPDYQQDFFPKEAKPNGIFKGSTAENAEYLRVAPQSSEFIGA

[3] = tested on: WI-38 normal fibroblast cell line; test: MTT cytotoxicity against normal human cells; format: cell-based; details: for IC50: Homo sapiens
Description: The evaluation was conducted using a 3-(4,5-dimethylthiazol-2-yl)-2,5-diphenyltetrazolium bromide (MTT) assay, as described by the authors of [50, 51]. The cell lines were obtained from ATCC. For comparative purposes, standard drugs, such as doxorubicin and erlotinib, were employed.

[4] = tested on: HCT-116, HePG-2, and MCF-7; test: MTT cytotoxicity, summary over the examined cancer cell lines; details: Homo sapiens
HER2 = biological target: T2, HER2 (Homo sapiens, UniProt P04626); test: In vitro luminescent HER2 tyrosine kinase assay (Kinase-Glo Max); format: biochemical; details: read-out: Kinase Inhibition IC50 HER2
T2 construct: purchased BPS Bioscience 40721
T2 sequence (P04626 23-1255): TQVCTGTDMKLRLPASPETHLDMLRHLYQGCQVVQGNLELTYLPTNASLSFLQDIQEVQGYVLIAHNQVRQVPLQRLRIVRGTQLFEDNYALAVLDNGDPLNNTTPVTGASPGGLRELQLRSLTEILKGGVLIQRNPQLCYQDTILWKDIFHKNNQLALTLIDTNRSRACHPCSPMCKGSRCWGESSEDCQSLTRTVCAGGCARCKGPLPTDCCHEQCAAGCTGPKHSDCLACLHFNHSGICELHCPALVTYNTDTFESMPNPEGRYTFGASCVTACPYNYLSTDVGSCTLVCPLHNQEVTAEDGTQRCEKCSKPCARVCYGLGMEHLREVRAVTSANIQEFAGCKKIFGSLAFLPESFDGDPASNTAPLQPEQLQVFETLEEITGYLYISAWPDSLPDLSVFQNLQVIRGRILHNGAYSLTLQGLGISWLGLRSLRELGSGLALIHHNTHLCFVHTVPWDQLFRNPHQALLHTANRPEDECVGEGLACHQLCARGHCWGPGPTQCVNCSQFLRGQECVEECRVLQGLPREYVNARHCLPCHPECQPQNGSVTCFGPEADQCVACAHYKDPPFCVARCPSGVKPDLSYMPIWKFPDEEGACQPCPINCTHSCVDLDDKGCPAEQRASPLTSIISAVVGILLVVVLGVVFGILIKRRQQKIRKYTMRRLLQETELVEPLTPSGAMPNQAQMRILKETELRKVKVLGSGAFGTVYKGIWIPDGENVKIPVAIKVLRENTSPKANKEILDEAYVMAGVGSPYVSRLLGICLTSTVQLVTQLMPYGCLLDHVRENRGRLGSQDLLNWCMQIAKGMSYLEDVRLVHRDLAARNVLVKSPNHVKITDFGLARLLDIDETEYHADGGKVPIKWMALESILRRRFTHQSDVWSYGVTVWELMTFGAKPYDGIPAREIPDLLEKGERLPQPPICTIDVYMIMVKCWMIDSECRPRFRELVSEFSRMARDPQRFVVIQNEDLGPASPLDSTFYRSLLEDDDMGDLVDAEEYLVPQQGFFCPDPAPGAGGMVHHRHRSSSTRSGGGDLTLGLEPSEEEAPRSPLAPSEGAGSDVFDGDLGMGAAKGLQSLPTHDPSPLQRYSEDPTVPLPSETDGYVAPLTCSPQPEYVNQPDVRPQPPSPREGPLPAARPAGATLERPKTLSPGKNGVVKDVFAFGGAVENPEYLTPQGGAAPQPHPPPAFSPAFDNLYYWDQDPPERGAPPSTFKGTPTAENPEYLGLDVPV
Description: […]. Erlotinib was probed as the standard drug in the EGFR inhibition assay, while lapatinib was tested as the […]. […].
EGFR and HER2 kinase inhibitory activities were determined based on the manufacturer’s guidelines (EGFR Kinase Assay Kit Catalog no. 40321 and HER2 Kinase Assay Kit Catalog no. 40721, BPS Bioscience, San Diego, CA).

[5] = tested on: anti-apoptotic protein BCL-2 in MCF-7; test: BCL-2 expression in MCF-7 cells (ELISA); format: cell-based, human
Description: (§1) Apoptosis is regulated by intrinsic pathways such as the B-cell lymphoma-2 (BCL-2) family. […] MCL-1, one of the BCL-2 family members, is likely to have a significant role in cell death. The expression of MCL-1 and BCL-2 in MCF-7 cells treated with different concentrations was studied.
(§2) Apoptosis of the MCF-7 cancer cell line was measured using the Human MCL1eia kit (ELISA Kit) for the MCL-1 enzyme assay and the Invitrogen Zymed® Bcl-2 ELISA Kit for the BCL-2 enzyme assay. The ROBONIK P2000 ELISA READER was used for analysis.

[6] = tested on: anti-apoptotic protein MCL-1 in MCF-7; test: MCL-1 expression in MCF-7 cells (ELISA); format: cell-based, human
Description: as §1, §2

MCF-7 cell line = test: Cell cycle analysis (propidium iodide, flow cytometry); format: cell-based, human
Source text: Cell cycle analysis is used to quantify DNA content distribution via flow cytometry at various cell cycle stages (pre-G1, G1, S, and G2/M). Compound 24 was selected to analyze its effect on cell cycle progression in the MCF-7 cell line at different concentrations.
Cancer cell line MCF-7 was stained with ab139418_Propidium Iodide (DNA stain) and analyzed using a FACSCalibur flow cytometer.

[7] = normal fibroblast WI-38, read-out: IC50 WI-38
[8] = read-out: average IC50 versus the examined cell lines
[9] = read-out: IC50 range against the selected cell lines

SMILES: COc1ccccc1C(C)=NNC(=O)CN1C(=O)NC(c2ccccc2)(c2ccccc2)C1=O [Compound 14, 2-(2,5-Dioxo-4,4-diphenylimidazolidin-1-yl)-N′-(1-(2-methoxyphenyl)ethylidene)acetohydrazide]
IC50 (hepatoblastoma (HePG-2)): 63.3 ± 3.8 µM | IC50 [1]: 74 ± 3.9 µM | IC50 [2]: 59.1 ± 3.4 µM

SMILES: CC(=NNC(=O)CN1C(=O)NC(c2ccccc2)(c2ccccc2)C1=O)c1ccc(F)cc1 [Compound 11, 2-(2,5-Dioxo-4,4-diphenylimidazolidin-1-yl)-N′-(1-(4-fluorophenyl)ethylidene)acetohydrazide]
IC50 (hepatoblastoma (HePG-2)): 21.1 ± 1.8 µM | IC50 [1]: 28.3 ± 2.1 µM | IC50 [2]: 14.2 ± 1.2 µM

SMILES: CC(=NNC(=O)CN1C(=O)NC(c2ccccc2)(c2ccccc2)C1=O)c1cccs1 [Compound 26, 2-(2,5-Dioxo-4,4-diphenylimidazolidin-1-yl)-N′-(1-(thiophen-2-yl)ethylidene)acetohydrazide]
IC50 (hepatoblastoma (HePG-2)): 32.3 ± 2.2 µM | IC50 [1]: 87.5 ± 4.6 µM | IC50 [2]: 76.8 ± 4.2 µM

SMILES: COc1ccc(C(C)=NNC(=O)CN2C(=O)NC(c3ccccc3)(c3ccccc3)C2=O)cc1 [Compound 16, 2-(2,5-Dioxo-4,4-diphenylimidazolidin-1-yl)-N′-(1-(4-methoxyphenyl)ethylidene)acetohydrazide]
IC50 (hepatoblastoma (HePG-2)): 27.3 ± 2 µM | IC50 [1]: 36.5 ± 2.4 µM | IC50 [2]: 35.8 ± 2.1 µM

IC50 (EGFR): 0.61 ± 0.02 µM | IC50 (HER2): 0.28 ± 0.01 µM
SMILES: CC(=NNC(=O)CN1C(=O)NC(c2ccccc2)(c2ccccc2)C1=O)c1ccc(OC(F)(F)F)cc1 [Compound 13, 2-(2,5-Dioxo-4,4-diphenylimidazolidin-1-yl)-N′-(1-(4-(trifluoromethoxy)phenyl)ethylidene)acetohydrazide]
IC50 [3, 7]: 45.4 µM | IC50 WI-38 ([3]; normal fibroblast WI-38): low cytotoxicity | IC50 (hepatoblastoma (HePG-2)): 13.9 ± 1.2 µM | SI (selectivity index) HePG-2 (hepatoblastoma (HePG-2)): 3.2 and 3.25 | IC50 [1]: 20.1 ± 1.7 µM | SI (selectivity index) HCT-116 [1]: 2.2 and 2.25 | IC50 [4, 8]: 14.5 µM | IC50 [2]: 9.58 ± 0.8 µM | SI (selectivity index) MCF-7 [2]: 4.7 and 4.73

SMILES: CC(=NNC(=O)CN1C(=O)NC(c2ccccc2)(c2ccccc2)C1=O)c1ccc(Cl)s1 [Compound 27, N′-(1-(5-Chlorothiophen-2-yl)ethylidene)-2-(2,5-dioxo-4,4-diphenylimidazolidin-1-yl)acetohydrazide]
IC50 (hepatoblastoma (HePG-2)): 16.8 ± 1.6 µM | IC50 [1]: 33.2 ± 2.2 µM | IC50 [2]: 19.7 ± 1.5 µM

SMILES: COc1ccc(C(C)=NNC(=O)CN2C(=O)NC(c3ccccc3)(c3ccccc3)C2=O)cc1OC [Compound 17, N′-(1-(3,4-Dimethoxyphenyl)ethylidene)-2-(2,5-dioxo-4,4-diphenylimidazolidin-1-yl)acetohydrazide]
IC50 (hepatoblastoma (HePG-2)): 19.6 ± 1.7 µM | IC50 [1]: 26.8 ± 2 µM | IC50 [2]: 15.7 ± 1.3 µM

SMILES: CC(=NNC(=O)CN1C(=O)NC(c2ccccc2)(c2ccccc2)C1=O)c1ccc(C(F)(F)F)cc1 [Compound 12, 2-(2,5-Dioxo-4,4-diphenylimidazolidin-1-yl)-N′-(1-(4-(trifluoromethyl)phenyl)ethylidene)acetohydrazide]
IC50 (hepatoblastoma (HePG-2)): 47.7 ± 2.7 µM | IC50 [1]: 52.5 ± 3 µM | IC50 [2]: 45.8 ± 2.4 µM

IC50 (EGFR): 1.61 ± 0.07 µM | IC50 (HER2): 1.17 ± 0.04 µM
SMILES: CC(=NNC(=O)CN1C(=O)NC(c2ccccc2)(c2ccccc2)C1=O)c1cccnc1 [Compound 21, 2-(2,5-Dioxo-4,4-diphenylimidazolidin-1-yl)-N′-(1-(pyridin-3-yl)ethylidene)acetohydrazide]
IC50 [3, 7]: 60.8 µM | IC50 WI-38 ([3]; normal fibroblast WI-38): low cytotoxicity | IC50 (hepatoblastoma (HePG-2)): 11.5 ± 1 µM | SI (selectivity index) HePG-2 (hepatoblastoma (HePG-2)): 5.2 and 5.28 | IC50 [1]: 19.2 ± 1.5 µM | SI (selectivity index) HCT-116 [1]: 3.1 and 3.15 | IC50 [4, 8]: 13.1 µM | IC50 [2]: 8.61 ± 0.6 µM | SI (selectivity index) MCF-7 [2]: 7.06

SMILES: CC(=NNC(=O)CN1C(=O)NC(c2ccccc2)(c2ccccc2)C1=O)c1ccccn1 [Compound 20, 2-(2,5-Dioxo-4,4-diphenylimidazolidin-1-yl)-N′-(1-(pyridin-2-yl)ethylidene)acetohydrazide]
IC50 (hepatoblastoma (HePG-2)): 49.1 ± 2.8 µM | IC50 [1]: 46.7 ± 2.7 µM | IC50 [2]: 32.4 ± 1.9 µM

SMILES: CC(=NNC(=O)CN1C(=O)NC(c2ccccc2)(c2ccccc2)C1=O)c1ccccc1C [Compound 8, 2-(2,5-Dioxo-4,4-diphenylimidazolidin-1-yl)-N′-(1-(o-tolyl)ethylidene)acetohydrazide]
IC50 (hepatoblastoma (HePG-2)): 25.4 ± 1.8 µM | IC50 [1]: 37.6 ± 2.3 µM | IC50 [2]: 34.1 ± 2 µM

SMILES: COc1cccc(C(C)=NNC(=O)CN2C(=O)NC(c3ccccc3)(c3ccccc3)C2=O)c1 [Compound 15, 2-(2,5-Dioxo-4,4-diphenylimidazolidin-1-yl)-N′-(1-(3-methoxyphenyl)ethylidene)acetohydrazide]
IC50 (hepatoblastoma (HePG-2)): 45.1 ± 2.5 µM | IC50 [1]: 53.9 ± 3.1 µM | IC50 [2]: 55.3 ± 3.2 µM

SMILES: CC(=NNC(=O)CN1C(=O)NC(c2ccccc2)(c2ccccc2)C1=O)c1ccco1 [Compound 25, 2-(2,5-Dioxo-4,4-diphenylimidazolidin-1-yl)-N′-(1-(furan-2-yl)ethylidene)acetohydrazide]
IC50 (hepatoblastoma (HePG-2)): 34.6 ± 2.1 µM | IC50 [1]: 49.9 ± 2.9 µM | IC50 [2]: 47.3 ± 2.6 µM

SMILES: C#Cc1cccc(Nc2ncnc3cc(OCCOC)c(OCCOC)cc23)c1 [Erlotinib, reference compound]
BCL-2 expression level ([5]; 2 µM): 13.96 ng/mL | BCL-2 expression level ([5]; 10 μM): 3.73 ng/mL | IC50 ([3]; WI-38, read-out: IC50 WI-38): 46.5 µM | IC50 (hepatoblastoma (HePG-2)): 7.9 ± 0.6 µM | IC50 [1]: 8.53 ± 0.5 µM | IC50 [4, 9]: 5.18 to 8.53 µM | MCL-1 expression level ([6]; 2 µM): 560.59 pg/mL | MCL-1 expression level ([6]; 10 μM): 162.37 pg/mL | Comment (cell cycle arrest) (MCF-7 cell line): Cell cycle arrest at G2/M | %G0–G1 (MCF-7 cell line; 2 µM): 46.12% | %G2/M (MCF-7 cell line; 2 µM): 31.05% | %S (MCF-7 cell line; 2 µM): 22.83% | %G0–G1 (MCF-7 cell line; 10 μM): 35.89% | %G2/M (MCF-7 cell line; 10 μM): 48.39% | %S (MCF-7 cell line; 10 μM): 15.72% | Comment (cell cycle arrest) (MCF-7 cell line; listed as erlotinib): cell cycle arrest appeared at the G2/M phase | IC50 [2]: 5.18 ± 0.4 µM

SMILES: CC(=NNC(=O)CN1C(=O)NC(c2ccccc2)(c2ccccc2)C1=O)c1cccc2ccccc12 [Compound 23, 2-(2,5-Dioxo-4,4-diphenylimidazolidin-1-yl)-N′-(1-(naphthalen-1-yl)ethylidene)acetohydrazide]
IC50 (hepatoblastoma (HePG-2)): 31.8 ± 2.1 µM | IC50 [1]: 34.4 ± 2.3 µM | IC50 [2]: 28.1 ± 1.7 µM

SMILES: COc1cc(C(C)=NNC(=O)CN2C(=O)NC(c3ccccc3)(c3ccccc3)C2=O)cc(OC)c1OC [Compound 18, 2-(2,5-Dioxo-4,4-diphenylimidazolidin-1-yl)-N′-(1-(3,4,5-trimethoxyphenyl)ethylidene)acetohydrazide]
IC50 [3, 7]: 60.8 µM | IC50 (hepatoblastoma (HePG-2)): 37.2 ± 2.3 µM | IC50 [1]: 39.6 ± 2.4 µM | IC50 [2]: 26 ± 1.6 µM

SMILES: CC(=NNC(=O)CN1C(=O)NC(c2ccccc2)(c2ccccc2)C1=O)c1ccncc1 [Compound 22, 2-(2,5-Dioxo-4,4-diphenylimidazolidin-1-yl)-N′-(1-(pyridin-4-yl)ethylidene)acetohydrazide]
IC50 (hepatoblastoma (HePG-2)): 17.2 ± 1.6 µM | IC50 [1]: 26 ± 1.9 µM | IC50 [2]: 13.1 ± 1.1 µM

SMILES: CC(=NNC(=O)CN1C(=O)NC(c2ccccc2)(c2ccccc2)C1=O)c1ccc(C)cc1 [Compound 9, 2-(2,5-Dioxo-4,4-diphenylimidazolidin-1-yl)-N′-(1-(p-tolyl)ethylidene)acetohydrazide]
IC50 (hepatoblastoma (HePG-2)): 29.7 ± 2.1 µM | IC50 [1]: 71.2 ± 3.8 µM | IC50 [2]: 69 ± 3.9 µM

SMILES: CC(=NNC(=O)CN1C(=O)NC(c2ccccc2)(c2ccccc2)C1=O)c1ccc([N+](=O)[O-])cc1 [Compound 19, 2-(2,5-Dioxo-4,4-diphenylimidazolidin-1-yl)-N′-(1-(4-nitrophenyl)ethylidene)acetohydrazide]
IC50 (hepatoblastoma (HePG-2)): 19.9 ± 1.8 µM | IC50 [1]: 31.3 ± 2.1 µM | IC50 [2]: 20.4 ± 1.5 µM

SMILES: CC(=NNC(=O)CN1C(=O)NC(c2ccccc2)(c2ccccc2)C1=O)c1ccccc1 [Compound 7, 2-(2,5-Dioxo-4,4-diphenylimidazolidin-1-yl)-N′-(1-phenylethylidene)acetohydrazide]
IC50 (hepatoblastoma (HePG-2)): 55.8 ± 3.3 µM | IC50 [1]: 47.5 ± 2.8 µM | IC50 [2]: 38.3 ± 2.2 µM

SMILES: COc1cccc2c1C(=O)c1c(O)c3c(c(O)c1C2=O)C[C@@](O)(C(=O)CO)C[C@@H]3O[C@H]1C[C@H](N)[C@H](O)[C@H](C)O1 [Doxorubicin, reference compound]
IC50 (hepatoblastoma (HePG-2)): 4.5 ± 0.2 µM | IC50 [4, 9]: 4.17 to 5.23 µM
